The text below walks through data of patent publication US20070248996A1, “Modulators of beta-amyloid peptide aggregation comprising D-amino acids” (Paraecis Pharmaceuticals, Inc., priority 1995, published 2007).

Data set [1] in a line: Modulator compound stability in cerebrospinal fluid. Particulars: 75% Rhesus monkey CSF, 37° C., 24 hours, HPLC; compared with PPI-368 (FIG. 1).
Protocol: The stability of a modulator compound in cerebrospinal fluid (CSF) can be assayed in an in vitro assay as follows. […] All sample handling is carried out in a laminar flow hood and test solutions are maintained at 37° C. during the assay. […] Samples (at the 0 time point and the 24 hour time point) are analyzed at room temperature using reverse-phase HPLC. A microbore column is used to maximize sensitivity. The parameters for analytical HPLC are as follows:
Chromatographic analysis is performed using a Hewlett Packard 1090 series II HPLC. The column used for separation is a C4, 5 μm, 1×250 mm (Vydac #214TP51). The flow rate is 50 μL/min and the elution profile of the test compounds is monitored at 214, 230, 260 and 280 nm.
In the next data set the target is Aβ1-40 (Homo sapiens, UniProt P05067). The class given is biochemical. The arrangement: ΔLag: unit not given here. The note with it: 5 μM test compound. The source says:
The nucleation assay is employed to determine the ability of test compounds to alter (e.g. inhibit) the early events in formation of β-AP fibers from monomeric β-AP. Characteristic of a nucleated polymerization mechanism, a lag time is observed prior to nucleation, after which the peptide rapidly forms fibers as reflected in a linear rise in turbidity. The time delay before polymerization of β-AP monomer can be quantified as well as the extent of formation of insoluble fiber by light scattering (turbidity). Polymerization reaches equilibrium when the maximum turbidity reaches a plateau The turbidity of a solution of natural β-AP in the absence or presence of various concentrations of a β-amyloid modulator compound is determined by measuring the apparent absorbance of the solution at 405 nm (A405 nm) over time. The threshold of sensitivity for the measurement of turbidity is in the range of 15-20 μM β-AP. […] This assay can be performed using stirring or shaking to accelerate polymerization, thereby increasing the speed of the assay. Moreover the assay can be adapted to a 96-well plate format to screen multiple compounds.
HFIP-solubilized peptide is sonicated in a waterbath sonicator for 5 min at highest setting, then evaporated to dryness under a stream of argon. The peptide film is resuspended in anhydrous dimethylsulfoxide (DMSO) at a concentration of 6.9 mg/ml (25× concentration), sonicated for 5 min as before, then filtered through a 0.2 micron nylon syringe filter (VWR cat. No.28196-050). Test compounds are dissolved in DMSO at a 100× concentration. […] Ten microliters of the mixture is then added to the bottom of a well of a Corning Costar ultra low binding 96-well plate (Coming Costar, Cambridge Mass.; cat. No. 2500). Ninety microliters of water is added to the well, the plate is shaken on a rotary shaken at a constant speed at room temperature for 30 seconds, an additional 100 μl of 2× PTL buffer (20 mM NaH2PO4, 300 mM NaCl, pH 7.4) is added to the well, the plate is reshaken for 30 seconds and a baseline (t=0) turbidity reading is taken by measuring the apparent absorbance at 405 nm using a Bio-Rad Model 450 Microplate Reader. The plate is then returned to the shaker and shaken continuously for 5 hours. Turbidity readings are taken at 15 minute intervals.
β-amyloid aggregation in the absence of any modulators results in enhanced turbidity of the natural β-AP solution (i.e., an increase in the apparent absorbance at 405 nm over time). […]

The nature of data set [2]: Safety profile for PPI-558, daily subcutaneous injection for 14 days. Particulars: female rats, 3 and 30 mg/kg s.c. daily for 14 days.
Protocol: On day 15, animals were sacrificed 1 hour post administration.
The nature of data set [3]: Brain uptake of tritium-labelled PPI-558 after subcutaneous injection. The note with it: male rats, single subcutaneous injection 4.6 mg/kg, 2 hours (FIG. 4).
Protocol: Male Sprague-Dawley rats (259-280 g) received a single subcutaneous injection in the nape of the neck (4.6 mg/kg at 1 ml/kg=4.6 mg/ml in 100% Sesame Oil). At various time points post administration (2, 8 and 24 hours; n=4/time point), the animlas were anesthetized. Trunk blood was taken to determine plasma levels of the parent compound and the left side of the brain was perfused with 1 ml of saline over 30 seconds via the left sommon carotid artery. The brain was rapidly removed and the left forebrain (perfused) was subjected to capillary depletion.

Square brackets hold non-standard residues; d marks the D form. Peptide text beside a SMILES is read from it. * marks the point of attachment. X5 = O=C(c1nccc2ccccc12)*

Chain of Aβ1-40 (P05067 672-711): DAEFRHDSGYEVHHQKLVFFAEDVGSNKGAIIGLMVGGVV

As for `CC(C)C[C@@H](NC(=O)CC[C@@H](C)[C@H]1CC[C@H]2[C@@H]3[C@H](O)C[C@@H]4C[C@H](O)CC[C@]4(C)[C@H]3C[C@H](O)[C@]12C)C(=O)N[C@@H](C(=O)N[C@H](Cc1ccccc1)C(=O)N[C@H](Cc1ccccc1)C(=O)N[C@H](C)C(=O)O)C(C)C` [PPI-433, cholyl-D-Leu-D-Val-D-Phe-D-Phe-D-Ala-OH], in data set [1], the “stability in cerebrospinal fluid” value is listed as “significantly greater stability in CSF than the L-amino acid-based compound”. For “4-Hydroxybenzoyl-D-Leu-D-Val-D-Phe-D-Phe-D-Ala-NH2 [PPI-558]”, the “ΔLag 5 μM” value on Aβ1-40 (Table VIII) was 2.0. In data set [2], the overt toxicity result is reported as “No overt toxicity was observed”. Further, in data set [3], the “ratio of brain versus plasma levels” value is recorded as “almost twice”. The molecule `CC(C)C[C@@H](NC(=O)[C@H](NC(=O)[C@@H](Cc1ccccc1)NC(=O)[C@@H](Cc1ccccc1)NC(=O)[C@@H](C)NC(=O)c1nccc2ccccc12)C(C)C)C(N)=O` [PPI-748, 1-Isoquinolinecarboxyl-d(AFFVL)-nh2] (X5-[dA][dF][dF][dV][dL]-NH2) yielded a ΔLag on Aβ1-40 (Table XI) below 3.
